Drawing on US12662491B2 (Redona Therapeutics, Inc., priority 2020, dated 2026), this text covers IC50 for 19 molecules.

SMILES strings stand for the structures.

In the first experiment the target is T1, Zcchc11 enzyme (Homo sapiens, UniProt Q5TAX3).
T1 construct: made in house; host or cells: HEK293 cells (Zcchc11); E. coli Rosetta II (LIN28A)
T1 sequence (Q5TAX3 212-1420): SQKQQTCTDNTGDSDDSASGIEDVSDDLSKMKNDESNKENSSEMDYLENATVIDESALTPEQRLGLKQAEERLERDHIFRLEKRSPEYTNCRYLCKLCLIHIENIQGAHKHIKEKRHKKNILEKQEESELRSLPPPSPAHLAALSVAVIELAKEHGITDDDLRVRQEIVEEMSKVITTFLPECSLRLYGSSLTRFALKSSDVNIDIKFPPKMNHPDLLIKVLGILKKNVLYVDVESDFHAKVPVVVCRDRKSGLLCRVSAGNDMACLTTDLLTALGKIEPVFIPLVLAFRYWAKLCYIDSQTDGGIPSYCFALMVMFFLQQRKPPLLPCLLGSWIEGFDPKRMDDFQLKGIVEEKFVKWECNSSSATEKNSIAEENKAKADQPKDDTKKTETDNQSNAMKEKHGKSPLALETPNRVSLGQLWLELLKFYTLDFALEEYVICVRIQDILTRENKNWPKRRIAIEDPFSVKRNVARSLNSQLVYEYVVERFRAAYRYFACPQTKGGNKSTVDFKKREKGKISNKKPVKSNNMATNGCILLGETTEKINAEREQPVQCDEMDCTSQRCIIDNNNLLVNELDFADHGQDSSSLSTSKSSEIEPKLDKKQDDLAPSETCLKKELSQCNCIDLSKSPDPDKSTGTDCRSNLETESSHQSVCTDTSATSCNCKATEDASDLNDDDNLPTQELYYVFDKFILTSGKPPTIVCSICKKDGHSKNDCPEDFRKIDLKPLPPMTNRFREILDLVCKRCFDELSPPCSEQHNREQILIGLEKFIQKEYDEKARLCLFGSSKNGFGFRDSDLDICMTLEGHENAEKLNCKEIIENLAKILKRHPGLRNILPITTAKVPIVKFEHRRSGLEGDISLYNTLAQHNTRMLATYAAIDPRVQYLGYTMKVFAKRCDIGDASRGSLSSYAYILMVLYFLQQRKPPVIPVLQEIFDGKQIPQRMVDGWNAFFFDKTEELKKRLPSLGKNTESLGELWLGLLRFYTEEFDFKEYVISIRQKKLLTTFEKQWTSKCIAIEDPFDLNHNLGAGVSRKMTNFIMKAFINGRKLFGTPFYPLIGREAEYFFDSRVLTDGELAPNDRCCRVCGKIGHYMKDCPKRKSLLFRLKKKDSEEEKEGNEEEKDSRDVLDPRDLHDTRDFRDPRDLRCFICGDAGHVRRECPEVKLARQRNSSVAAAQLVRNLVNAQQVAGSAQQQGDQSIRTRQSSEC
The experiment is described as follows: TUTase assay (Zcchc11 assay, Lin28a-dependent polyuridylation of pre-let-7). To be noted: Lin28a-dependent Zcchc11 (Z11) TUTase activity; read-out: Potency Lin28a-dep Z11 IC50. The experiment is classed as biochemical. The method in brief:
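LIN28A (10 nM) in pH 7.3 HEPES/KCl/MgCl2/DTT buffer was mixed with serially diluted compound, then 0.2 nM truncated human Zcchc11 and 2 nM labeled pre-let-7 were added for 30 min at room temperature. UTP (5 uM) and quench probe (4 nM) then started the reaction. Linear early rates gave IC50 values.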
For `CN(C)C1CN(c2ccc(-n3cc(C(=O)O)c(=O)c4ccc(N5C(=O)CCCC5COc5ccccn5)cc43)cn2)C1` (stereo not shown) [Compound 323, 1-[6-[3-(Dimethyl-amino)azetidin-1-yl]pyridin-3-yl]-4-oxo-7-[2-oxo-6-[(pyridin-2-yloxy)methyl]piperidin-1-yl]quinoline-3-carboxylic acid], the IC50 was > 50000 nM.
For the molecule `O=C(O)c1cn(-c2ncc(O)cn2)c2cc(N3CCC[C@@H]3COc3ccccn3)c(F)cc2c1=O` [Compound 88, (R)-6-fluoro-1-(5-hydroxy-pyrimidin-2-yl)-4-oxo-7-(2-((pyridin-2-yloxy)methyl)pyrrolidin-1-yl)-1,4-dihydro-quinoline-3-carboxylic acid], the IC50 was 1000 to 10000 nM.
With `Cc1cccnc1OC[C@H]1CCCN1c1cc2c(cc1F)c(=O)c(C(=O)O)cn2-c1cnn(C)c1` [Compound 291, (R)-6-fluoro-1-(1-methyl-1H-pyrazol-4-yl)-7-(2-(((3-methylpyridin-2-yl)oxy)methyl)pyrrolidin-1-yl)-4-oxo-1,4-dihydro-quinoline-3-carboxylic acid], the IC50 is ≤ 1000 nM.
Still for that read-out and setting: next, `CC1CCN(c2cc3c(cc2Cl)c(=O)c(C(=O)O)cn3-c2ccc(N3CC(N(C)C)C3)nc2)C1COc1ncccc1Cl` (stereo not shown) [Compound 306, 6-chloro-7-(2-(((3-chloropyridin-2-yl)oxy)methyl)-3-methyl-pyrrolidin-1-yl)-1-(6-(3-(dimethyl-amino)azetidin-1-yl)pyridin-3-yl)-4-oxo-1,4-dihydro-quinoline-3-carboxylic acid]: ≤ 1000 nM.
The same measure, in the same setting: for `CC1CCN(c2cc3c(cc2Cl)c(=O)c(C(=O)O)cn3-c2ccnc(N)c2)[C@H]1COc1nc(N(C)C)ccc1Cl` (stereo partly shown) [Compound 333] the value was ≤ 1000 nM.
Take `Cc1ccc(F)c(OC[C@H]2C[C@H]3C[C@H]3N2c2cc3c(cc2F)c(=O)c(C(=O)O)cn3-c2ccc(N(C)C)nc2)n1` [Compound 344, 1-[6-(Dimethyl-amino)pyridin-3-yl]-6-fluoro-7-[(1R,3R,5R)-3-{[(3-fluoro-6-methylpyridin-2-yl)oxy]methyl}-2-azabicyclo [3.1.0]hexan-2-yl]-4-oxoquinoline-3-carboxylic acid]: the IC50 is ≤ 1000 nM.
The same measure, in the same setting: next, `O=C(O)c1cn(-c2ccc3[nH]ncc3c2)c2cc(N3CCC[C@@H]3COc3ncccc3Cl)c(Cl)cc2c1=O` [Compound 128, (R)-6-chloro-7-(2-(((3-chloropyridin-2-yl)oxy)methyl)pyrrolidin-1-yl)-1-(1H-indazol-5-yl)-4-oxo-1,4-dihydro-quinoline-3-carboxylic acid]: ≤ 1000 nM; `COc1ccc(F)c(OC[C@H]2C[C@H]3C[C@H]3N2c2cc3c(cc2F)c(=O)c(C(=O)O)cn3-c2ccnc(N)c2)n1` (racemic) [Compound 235, Rac-1-(2-aminopyridin-4-yl)-6-fluoro-7-((1R,3R,5R)-3-(((3-fluoro-6-methoxy-pyridin-2-yl)oxy)methyl)-2-azabicyclo [3.1.0]hexan-2-yl)-4-oxo-1,4-dihydro-quinoline-3-carboxylic acid]: ≤ 1000 nM.

The experiment is the same for the next values; noted with them: Lin28a-dependent Zcchc11 (Z11) TUTase assay; read-out: Potency Lin28a-dep Z11 IC50.
As to `Cc1cccnc1OC[C@H]1CCCN1c1cc2c(cc1Cl)c(=O)c(C(=O)O)cn2C1(CO)CC1` [Example 454, (R)-6-chloro-1-(1-(hydroxymethyl)cyclopropyl)-7-(2-(((3-methyl-pyridin-2-yl)oxy)methyl)pyrrolidin-1-yl)-4-oxo-1,4-dihydroquinoline-3-carboxylic acid], the IC50 was 1000 to 10000 nM.
With `O=C(O)c1cn(-c2ccc(N3CCC3=O)nc2)c2nc(N3CCC[C@@H]3COc3ncccc3Cl)c(Cl)cc2c1=O` [Example 531, (R)-6-chloro-7-(2-(((3-chloropyridin-2-yl)oxy)methyl)pyrrolidin-1-yl)-4-oxo-1-(6-(2-oxoazetidin-1-yl)pyridin-3-yl)-1,4-dihydro-1,8-naphthyridine-3-carboxylic acid], the IC50 is ≤ 1000 nM.
Same read-out and setting: for `CC1(n2cc(C(=O)O)c(=O)c3cc(F)c(N4CCC[C@@H]4COc4ccccn4)cc32)CC1` [Example 361, (R)-6-fluoro-1-(1-methylcyclo-propyl)-4-oxo-7-(2-((pyridin-2-yloxy)methyl)pyrrolidin-1-yl)-1,4-dihydroquinoline-3-carboxylic acid] the value was ≤ 1000 nM.
The same measure, in the same setting: next, `CN(C)C1CN(c2cc(-n3cc(C(=O)O)c(=O)c4cc(Cl)c(N5CCC[C@@H]5COc5ncccc5Cl)cc43)ccn2)C1` [Example 548, (R)-6-chloro-7-(2-(((3-chloropyridin-2-yl)oxy)methyl)pyrrolidin-1-yl)-1-(2-(3-(dimethylamino)azetidin-1-yl)pyridin-4-yl)-4-oxo-1,4-dihydroquinoline-3-carboxylic acid]: ≤ 1000 nM; `O=C(O)c1cn(C2CCC2)c2cc(N3CCC[C@@H]3COc3ccccn3)c(F)cc2c1=O` [Example 448, (R)-1-cyclobutyl-6-fluoro-4-oxo-7-(2-((pyridin-2-yloxy)methyl)pyrrolidin-1-yl)-1,4-dihydroquinoline-3-carboxylic acid]: 1000 to 10000 nM.
On the same count and under the same terms, next, `O=C(O)c1cn(C2CCn3ccnc3C2)c2cc(N3CCC[C@@H]3COc3ncccc3Cl)c(Br)cc2c1=O` (stereo partly drawn) [Example 536, 6-bromo-7-((R)-2-(((3-chloropyridin-2-yl)oxy)methyl)pyrrolidin-1-yl)-4-oxo-1-(5,6,7,8-tetrahydroimidazo [1,2-a]pyridin-7-yl)-1,4-dihydroquinoline-3-carboxylic acid]: ≤ 1000 nM; `O=C(O)c1cn(-c2ccc(N3CC(O)C3)nc2)c2cc(N3CCC[C@@H]3COc3ncccc3Cl)c(Cl)cc2c1=O` [Example 423, (R)-6-chloro-7-(2-(((3-chloropyridin-2-yl)oxy)methyl)pyrrolidin-1-yl)-1-(6-(3-hydroxy-azetidin-1-yl)pyridin-3-yl)-4-oxo-1,4-dihydroquinoline-3-carboxylic acid]: ≤ 1000 nM.
Regarding `CN1CC2(C1)CN(c1ccc(-n3cc(C(=O)O)c(=O)c4cc(Cl)c(N5CCC[C@@H]5COc5ncccc5Cl)cc43)cn1)C2` [Example 520, (R)-6-chloro-7-(2-(((3-chloropyridin-2-yl)oxy)methyl)pyrrolidin-1-yl)-1-(6-(6-methyl-2,6-diazaspiro[3.3]heptan-2-yl)pyridin-3-yl)-4-oxo-1,4-dihydroquinoline-3-carboxylic acid], the IC50 was ≤ 1000 nM.
Still for that read-out and setting: next, `N#Cc1cc2c(=O)c(C(=O)O)cn(-c3ccc(N4CCC4)nc3)c2cc1N1CCC[C@@H]1COc1ncccc1Cl` [Example 488, 1-[6-(azetidin-1-yl)pyridin-3-yl]-7-[(2R)-2-{[(3-chloropyridin-2-yl)oxy)methyl}pyrrolidin-1-yl]-6-cyano-4-oxo-1,4-dihydroquinoline-3-carboxylic acid]: ≤ 1000 nM; `O=C(O)c1cn(-c2ccc(CO)cc2F)c2cc(N3CCC[C@@H]3COc3ccccn3)c(F)cc2c1=O` [Example 374, (R)-6-fluoro-1-(2-fluoro-4-(hydroxymethyl)phenyl)-4-oxo-7-(2-((pyridin-2-yloxy)methyl)pyrrolidin-1-yl)-1,4-dihydroquinoline-3-carboxylic acid]: ≤ 1000 nM; `O=C(O)c1cn(-c2ccc(O)nn2)c2cc(N3CCC[C@@H]3COc3ccccn3)c(F)cc2c1=O` [Example 410, (R)-6-fluoro-1-(6-hydroxypyridazin-3-yl)-4-oxo-7-(2-((pyridin-2-yloxy)methyl)pyrrolidin-1-yl)-1,4-dihydroquinoline-3-carboxylic acid]: 1000 to 10000 nM.
